According to ChEMBL document CHEMBL1146891, “Preparation of 1-(3-aminobenzo[d]isoxazol-5-yl)-1H-pyrazolo[4,3-d]pyrimidin-7(6H)-ones as potent, selective, and efficacious inhibitors of coagulation factor Xa” (Bioorg Med Chem Lett, 2006):
Blank lines part the entries; values can stand above or below the molecule they belong to.

Assays:
Coagulation factor X [1] = biological target: T1, Coagulation factor X (Homo sapiens, UniProt P00742); experiment: Binding affinity to human f10a
[2] = Stability at pH 1.0; type: physicochemical; conditions: buffer
[3] = Stability at pH 4.0; type: physicochemical; conditions: buffer
Coagulation factor X [4] = biological target: T1, Coagulation factor X; experiment: Anticoagulant activity in human plasma measured as activated partial thromboplastin time; type: functional, cell-free
[5] = biological target: T2, Coagulation factor VII/tissue factor (Homo sapiens) (UniProt P08709+P13726); experiment: Anticoagulant activity in human plasma measured as prothrombin time; type: functional, cell-free
[6] = biological target: T2, Coagulation factor VII/tissue factor (Homo sapiens); experiment: Anticoagulant activity in rabbit plasma measured as prothrombin time; type: functional, cell-free; conditions: Oryctolagus cuniculus, target entry is the homologue from another species
Homo sapiens [7] = species on record: Homo sapiens; experiment: Selectivity for f10a over chymotrypsin
[8] = biological target: Thrombin and coagulation factor X (Homo sapiens) (UniProt P00734+P00742); experiment: Selectivity for f10a over thrombin; type: protein assay
Homo sapiens [9] = species on record: Homo sapiens; experiment: Selectivity for f10a over trypsin
Homo sapiens [10] = species on record: Homo sapiens; experiment: Selectivity for f10a over activated protein C
[11] = biological target: Coagulation factor VII and X (Homo sapiens) (UniProt P00742+P08709); experiment: Selectivity for f10a over f7a; type: protein assay
Homo sapiens [12] = species on record: Homo sapiens; experiment: Selectivity for f10a over plasmin
Homo sapiens [13] = species on record: Homo sapiens; experiment: Selectivity for f10a over tPA
[14] = biological target: Coagulation factor X and plasma kallikrein (Homo sapiens) (UniProt P03952+P00742); experiment: Selectivity for f10a over plasma kallikrein; type: cell-free
Homo sapiens [15] = species on record: Homo sapiens; experiment: Selectivity for f10a over urokinase
Prothrombin = Prothrombin (Homo sapiens, UniProt P00734); experiment: Binding affinity to human thrombin
Trypsin = Trypsin (Homo sapiens, UniProt P07477+P07478+P35030); experiment: Binding affinity to human trypsin; type: protein assay
[16] = biological target: Vitamin K-dependent protein C (Homo sapiens, UniProt P04070); experiment: Binding affinity to human activated protein C
Coagulation factor IX = Coagulation factor IX (Homo sapiens, UniProt P00740); experiment: Binding affinity to human f9a
Plasminogen = Plasminogen (Homo sapiens, UniProt P00747); experiment: Binding affinity to human plasmin
[17] = biological target: Tissue-type plasminogen activator (Homo sapiens, UniProt P00750); experiment: Binding affinity to human tPA
[18] = biological target: Urokinase-type plasminogen activator (Homo sapiens, UniProt P00749); experiment: Binding affinity to human urokinase
Chymotrypsinogen B = Chymotrypsinogen B (Homo sapiens, UniProt P17538); experiment: Binding affinity to human chymotrypsin
Coagulation factor X [19] = biological target: T3, Coagulation factor X (Oryctolagus cuniculus, UniProt O19045); experiment: Binding affinity to rabbit f10a
T3 sequence (O19045 whole entry): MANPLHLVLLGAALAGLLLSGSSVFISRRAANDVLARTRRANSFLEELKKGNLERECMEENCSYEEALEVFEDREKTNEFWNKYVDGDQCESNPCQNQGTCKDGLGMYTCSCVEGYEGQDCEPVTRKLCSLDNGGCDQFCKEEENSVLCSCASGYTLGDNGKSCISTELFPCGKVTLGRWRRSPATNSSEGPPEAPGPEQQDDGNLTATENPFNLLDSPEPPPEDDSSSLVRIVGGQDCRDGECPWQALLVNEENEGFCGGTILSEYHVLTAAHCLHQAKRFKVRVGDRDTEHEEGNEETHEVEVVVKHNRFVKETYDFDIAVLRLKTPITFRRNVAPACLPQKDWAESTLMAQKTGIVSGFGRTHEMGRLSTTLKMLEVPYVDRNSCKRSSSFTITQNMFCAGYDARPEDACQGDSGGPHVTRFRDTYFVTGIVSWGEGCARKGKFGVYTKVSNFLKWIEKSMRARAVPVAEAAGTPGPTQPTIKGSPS

Oryctolagus cuniculus = experiment: Inhibition of thrombus formation in iv dosed rabbit arterio-venous shunt model; type: functional, organism-based
[20] = Protein binding in rabbit plasma; type: ADME, organism-based, Oryctolagus cuniculus; conditions: read-out: PPB (converted)
[21] = Clearance in dog at 0.5 mg/kg, iv and 0.2 mg/kg, po; type: ADME, organism-based, Canis lupus familiaris; conditions: in vivo
[22] = Volume of distribution in dog at 0.5 mg/kg, iv and 0.2 mg/kg, po; type: ADME, organism-based, Canis lupus familiaris; conditions: in vivo, read-out: Vdss
[23] = Half life in dog at 0.5 mg/kg, iv and 0.2 mg/kg, po; type: ADME, organism-based, Canis lupus familiaris; conditions: in vivo
[24] = Bioavailability in dog at 0.5 mg/kg, iv and 0.2 mg/kg, po; type: ADME, organism-based, Canis lupus familiaris; conditions: in vivo
[25] = Apparent permeability in Caco-2 cells; type: ADME, cell-based; conditions: human

T1 sequence (P00742 41-179 limits assumed): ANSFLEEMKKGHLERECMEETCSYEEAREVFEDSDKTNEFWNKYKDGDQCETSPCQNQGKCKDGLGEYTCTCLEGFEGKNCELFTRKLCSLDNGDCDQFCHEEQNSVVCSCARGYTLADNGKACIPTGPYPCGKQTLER
T1 sequence (P00742 235-488 limits assumed): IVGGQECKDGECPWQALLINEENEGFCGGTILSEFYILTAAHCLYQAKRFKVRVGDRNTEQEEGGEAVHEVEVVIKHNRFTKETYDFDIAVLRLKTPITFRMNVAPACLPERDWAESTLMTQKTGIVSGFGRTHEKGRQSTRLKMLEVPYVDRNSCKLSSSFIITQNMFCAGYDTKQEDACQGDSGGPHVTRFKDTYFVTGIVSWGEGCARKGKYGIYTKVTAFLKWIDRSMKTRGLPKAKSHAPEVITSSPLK
Plasminogen, sequence (P00747 97-580 limits assumed): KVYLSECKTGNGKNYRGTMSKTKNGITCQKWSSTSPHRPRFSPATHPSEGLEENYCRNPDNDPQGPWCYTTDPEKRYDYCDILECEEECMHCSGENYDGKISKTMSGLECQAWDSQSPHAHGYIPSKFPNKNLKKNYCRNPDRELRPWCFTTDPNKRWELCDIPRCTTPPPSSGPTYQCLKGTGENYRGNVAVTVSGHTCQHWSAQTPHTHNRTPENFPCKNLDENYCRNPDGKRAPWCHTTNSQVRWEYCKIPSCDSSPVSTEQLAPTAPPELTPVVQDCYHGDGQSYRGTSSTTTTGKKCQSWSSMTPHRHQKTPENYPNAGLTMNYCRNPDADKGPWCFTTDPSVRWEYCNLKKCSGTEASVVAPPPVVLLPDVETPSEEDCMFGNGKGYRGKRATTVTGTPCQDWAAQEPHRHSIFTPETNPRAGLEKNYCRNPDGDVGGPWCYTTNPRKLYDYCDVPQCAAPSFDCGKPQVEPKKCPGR
Plasminogen, sequence (P00747 581-810 limits assumed): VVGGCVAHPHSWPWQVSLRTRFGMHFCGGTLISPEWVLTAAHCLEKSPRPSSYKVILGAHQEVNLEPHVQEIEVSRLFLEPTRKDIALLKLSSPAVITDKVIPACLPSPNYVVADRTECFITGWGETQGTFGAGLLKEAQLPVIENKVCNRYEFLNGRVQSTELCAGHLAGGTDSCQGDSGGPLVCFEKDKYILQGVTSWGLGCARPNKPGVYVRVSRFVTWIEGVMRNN
Vitamin K-dependent protein C, sequence (P04070 43-197 limits assumed): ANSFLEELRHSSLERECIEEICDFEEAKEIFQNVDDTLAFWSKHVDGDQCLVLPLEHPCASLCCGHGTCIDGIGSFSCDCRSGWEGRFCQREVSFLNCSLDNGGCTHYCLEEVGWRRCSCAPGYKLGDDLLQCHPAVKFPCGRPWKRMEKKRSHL
Vitamin K-dependent protein C, sequence (P04070 212-461 limits assumed): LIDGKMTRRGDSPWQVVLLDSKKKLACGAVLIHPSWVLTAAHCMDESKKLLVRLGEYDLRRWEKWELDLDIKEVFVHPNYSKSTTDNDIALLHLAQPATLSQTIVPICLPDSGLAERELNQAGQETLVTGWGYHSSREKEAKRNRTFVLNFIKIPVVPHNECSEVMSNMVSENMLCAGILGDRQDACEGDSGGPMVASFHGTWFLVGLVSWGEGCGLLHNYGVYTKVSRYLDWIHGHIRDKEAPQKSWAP
Coagulation factor X and plasma kallikrein (Homo sapiens), sequence (P00742 whole entry, looked up): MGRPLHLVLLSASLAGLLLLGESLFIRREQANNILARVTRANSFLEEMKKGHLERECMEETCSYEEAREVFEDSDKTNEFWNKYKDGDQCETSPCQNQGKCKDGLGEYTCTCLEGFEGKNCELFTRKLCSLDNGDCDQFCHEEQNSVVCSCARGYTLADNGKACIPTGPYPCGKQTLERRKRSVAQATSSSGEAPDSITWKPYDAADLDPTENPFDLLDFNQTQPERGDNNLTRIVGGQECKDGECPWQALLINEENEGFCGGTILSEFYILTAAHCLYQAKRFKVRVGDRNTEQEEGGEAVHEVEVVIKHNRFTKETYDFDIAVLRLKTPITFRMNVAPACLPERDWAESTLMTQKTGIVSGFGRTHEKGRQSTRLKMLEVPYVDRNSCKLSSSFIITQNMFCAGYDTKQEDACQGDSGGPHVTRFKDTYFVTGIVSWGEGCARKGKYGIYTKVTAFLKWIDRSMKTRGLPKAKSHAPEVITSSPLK
Coagulation factor X and plasma kallikrein (Homo sapiens), sequence (P03952 whole entry, looked up): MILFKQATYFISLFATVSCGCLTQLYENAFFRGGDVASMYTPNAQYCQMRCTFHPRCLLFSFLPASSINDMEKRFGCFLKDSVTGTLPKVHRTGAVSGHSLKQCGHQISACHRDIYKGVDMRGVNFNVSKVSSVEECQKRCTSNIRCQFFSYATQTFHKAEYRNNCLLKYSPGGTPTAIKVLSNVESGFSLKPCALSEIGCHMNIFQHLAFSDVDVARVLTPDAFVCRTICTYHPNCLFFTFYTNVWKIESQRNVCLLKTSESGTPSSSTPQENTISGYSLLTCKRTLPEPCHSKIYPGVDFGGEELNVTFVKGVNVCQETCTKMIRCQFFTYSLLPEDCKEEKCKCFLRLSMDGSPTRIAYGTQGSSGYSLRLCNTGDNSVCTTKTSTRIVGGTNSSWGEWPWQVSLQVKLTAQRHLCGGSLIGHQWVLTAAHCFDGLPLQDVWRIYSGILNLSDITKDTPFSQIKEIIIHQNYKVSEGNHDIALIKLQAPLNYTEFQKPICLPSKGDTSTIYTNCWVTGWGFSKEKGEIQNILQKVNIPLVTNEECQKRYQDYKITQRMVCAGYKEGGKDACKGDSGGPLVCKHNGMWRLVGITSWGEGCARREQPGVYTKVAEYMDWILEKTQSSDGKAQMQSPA
Thrombin and coagulation factor X (Homo sapiens), sequence (P00742 whole entry, looked up, other chains not shown): as the sequence (P00742 whole entry, looked up) above
Tissue-type plasminogen activator, sequence (P00750 whole entry): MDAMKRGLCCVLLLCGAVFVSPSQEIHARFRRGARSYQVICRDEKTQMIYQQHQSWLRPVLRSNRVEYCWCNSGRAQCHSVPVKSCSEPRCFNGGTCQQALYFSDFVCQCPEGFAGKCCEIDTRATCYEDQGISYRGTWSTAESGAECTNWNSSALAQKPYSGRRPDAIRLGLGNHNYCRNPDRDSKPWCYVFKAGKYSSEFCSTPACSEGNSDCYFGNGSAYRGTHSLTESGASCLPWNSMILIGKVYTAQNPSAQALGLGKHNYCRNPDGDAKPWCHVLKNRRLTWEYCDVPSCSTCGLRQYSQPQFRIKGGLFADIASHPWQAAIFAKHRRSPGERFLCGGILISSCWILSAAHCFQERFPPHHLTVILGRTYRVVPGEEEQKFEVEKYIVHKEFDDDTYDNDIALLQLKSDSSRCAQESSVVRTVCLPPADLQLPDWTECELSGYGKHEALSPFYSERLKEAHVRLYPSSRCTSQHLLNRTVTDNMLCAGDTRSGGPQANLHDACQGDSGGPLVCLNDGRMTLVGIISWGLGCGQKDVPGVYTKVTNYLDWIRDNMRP
Chymotrypsinogen B, sequence (P17538 34-164 limits assumed, other chains not shown): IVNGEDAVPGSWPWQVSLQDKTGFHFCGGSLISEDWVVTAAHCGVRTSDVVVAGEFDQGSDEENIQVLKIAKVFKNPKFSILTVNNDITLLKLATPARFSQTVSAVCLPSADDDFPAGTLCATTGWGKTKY
Chymotrypsinogen B, sequence (P17538 167-263 limits assumed, other chains not shown): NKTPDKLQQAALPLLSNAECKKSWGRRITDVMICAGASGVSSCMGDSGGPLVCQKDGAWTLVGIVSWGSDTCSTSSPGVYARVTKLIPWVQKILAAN
Coagulation factor IX, sequence (P00740 47-191 limits assumed): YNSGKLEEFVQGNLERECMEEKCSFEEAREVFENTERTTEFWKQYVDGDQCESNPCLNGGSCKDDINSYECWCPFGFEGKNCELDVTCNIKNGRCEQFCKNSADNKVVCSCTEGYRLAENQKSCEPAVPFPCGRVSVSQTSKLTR
Coagulation factor IX, sequence (P00740 227-461 limits assumed): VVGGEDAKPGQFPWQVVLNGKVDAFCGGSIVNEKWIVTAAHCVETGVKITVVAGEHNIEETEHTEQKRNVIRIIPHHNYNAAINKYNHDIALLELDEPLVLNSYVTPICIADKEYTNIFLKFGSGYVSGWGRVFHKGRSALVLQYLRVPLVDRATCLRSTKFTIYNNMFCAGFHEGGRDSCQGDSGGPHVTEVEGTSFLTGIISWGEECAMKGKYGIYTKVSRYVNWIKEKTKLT

SMILES: Cc1nn(-c2ccc3onc(N)c3c2)c2c(=O)n(-c3ccc(-c4ccccc4CN(C)C)cc3)cnc12
Ki (Coagulation factor X [1]): 0.53 nM
Stability [2]: 97.2%
Stability [3]: 90.1%

SMILES: Cc1nn(-c2ccc3onc(N)c3c2)c2c(=O)n(-c3ccc(-c4ccccc4CN(C)C)cc3)c(C)nc12
2aPTT (Coagulation factor X [4]): 1.7 µM
2PT [5]: 1.4 µM
2PT [6]: 1.8 µM
Ratio Ki (Homo sapiens [7]): > 1000
Ratio Ki [8]: > 500
Ratio Ki (Homo sapiens [9]): > 1000
Ratio Ki (Homo sapiens [10]): > 1000
Ratio Ki [11]: > 1000
Ratio Ki (Homo sapiens [12]): > 1000
Ratio Ki (Homo sapiens [13]): > 1000
Ratio Ki [14]: > 1000
Ratio Ki (Homo sapiens [15]): > 1000

SMILES: Cc1nn(-c2ccc3onc(N)c3c2)c2c(=O)n(-c3ccc(-c4ccccc4CN4CC[C@@H](O)C4)cc3)c(C)nc12
Ki (Coagulation factor X [1]): 0.37 nM
Ki (Prothrombin): 245 nM
Ki (Trypsin): > 4.2 µM
Ki [16]: > 76 µM
Ki (Coagulation factor IX): > 41 µM
Ki (Plasminogen): > 15 µM
Ki [17]: > 33 µM
Ki [18]: > 13 µM
Ki (Chymotrypsinogen B): 580 nM
Ki (Coagulation factor X [19]): 0.59 nM
ID50 (Oryctolagus cuniculus): 2.4 µmol/kg/h
fraction unbound [20]: 0.09

SMILES: Nc1nc2c(C(F)(F)F)nn(-c3ccc4onc(N)c4c3)c2c(O)c1-c1ccc(-c2ccccc2CN2CCC(O)CC2)cc1
Ki (Coagulation factor X [1]): 0.77 nM
2aPTT (Coagulation factor X [4]): 638 µM
2PT [5]: 230 µM

SMILES: Cc1nn(-c2ccc3onc(N)c3c2)c2c(=O)n(-c3ccc(-c4ccccc4CN4CC[C@H](O)C4)cc3)cnc12
Ki (Coagulation factor X [1]): 0.5 nM
2aPTT (Coagulation factor X [4]): 4.3 µM
2PT [5]: 2.1 µM

SMILES: Cc1nn(-c2ccc3onc(N)c3c2)c2c(=O)n(-c3ccc(-c4ccccc4CN4CCCC4)cc3)cnc12
Ki (Coagulation factor X [1]): 1.3 nM
2aPTT (Coagulation factor X [4]): 1.6 µM
2PT [5]: 1.1 µM

SMILES: Cc1nn(-c2ccc3onc(N)c3c2)c2c(=O)n(-c3ccc(-c4ccccc4CN(C)C(C)C)cc3)c(C)nc12
Ki (Coagulation factor X [1]): 0.35 nM
2aPTT (Coagulation factor X [4]): 2 µM
2PT [5]: 4 µM

SMILES: Cc1nn(-c2ccc3onc(N)c3c2)c2c(=O)n(-c3ccc(-c4ccccc4CNCC4CC4)cc3)cnc12
Ki (Coagulation factor X [1]): 1.7 nM
2aPTT (Coagulation factor X [4]): 8.1 µM
2PT [5]: 3.1 µM

Now from value to molecule:

2aPTT (Coagulation factor X [4]): 1.7 µM
SMILES: CN(C)Cc1ccccc1-c1ccc(N2CNc3c(C(F)(F)F)nn(-c4ccc5onc(N)c5c4)c3C2=O)cc1

clearance [21]: 16.3 mL/min/kg
Vd [22]: 4.2 L/kg
half-life [23]: 258 min
bioavailability [24]: 27%
Papp [25]: 3.9 ×10⁻⁶ cm/s
SMILES: Nc1noc2ccc(-n3nc(C(F)(F)F)c4c3C(=O)N(c3ccc(-c5ccccc5CN5CC[C@@H](O)C5)cc3)CN4)cc12.O=C(O)C(F)(F)F

2aPTT (Coagulation factor X [4]): 9.2 µM
2PT [5]: 4.1 µM
2PT [6]: 2.7 µM
SMILES: Cc1nc2c(C(F)(F)F)nn(-c3ccc4onc(N)c4c3)c2c(=O)n1-c1ccc(-c2ccccc2CN(C)C)cc1

Ki (Coagulation factor X [1]): 0.21 nM
Ki (Prothrombin): 130 nM
Ki (Trypsin): > 4.2 µM
Ki [16]: > 20 µM
Ki (Coagulation factor IX): > 41 µM
Ki (Plasminogen): > 15 µM
Ki [17]: > 33 µM
Ki [18]: > 13 µM
Ki (Chymotrypsinogen B): 3240 nM
SMILES: Nc1noc2ccc(-n3nc(C(F)(F)F)c4c3C(=O)N(c3ccc(-c5ccccc5CN5CC[C@@H](O)C5)cc3)CN4)cc12 [listing 1 of 2 here]

Ki (Coagulation factor X [1]): 5.5 nM
SMILES: CN(C)Cc1ccccc1-c1ccc(-c2nnc3c(C(F)(F)F)nn(-c4ccc5onc(N)c5c4)c3c2O)cc1

Ki (Coagulation factor X [1]): 0.35 nM
2aPTT (Coagulation factor X [4]): 3.7 µM
2PT [5]: 2.6 µM
Stability [2]: 83.2%
Stability [3]: 72.3%
SMILES: CN(C)Cc1ccccc1-c1ccc(-n2cnc3c(C(F)(F)F)nn(-c4ccc5onc(N)c5c4)c3c2=O)cc1

2aPTT (Coagulation factor X [4]): 2.9 µM
2PT [5]: 1.6 µM
Ratio Ki (Homo sapiens [7]): > 1000
Ratio Ki [8]: > 500
Ratio Ki (Homo sapiens [9]): > 1000
Ratio Ki (Homo sapiens [10]): > 1000
Ratio Ki [11]: > 1000
Ratio Ki (Homo sapiens [12]): > 1000
Ratio Ki (Homo sapiens [13]): > 1000
Ratio Ki [14]: > 1000
Ratio Ki (Homo sapiens [15]): > 1000
SMILES: Nc1noc2ccc(-n3nc(C(F)(F)F)c4c3C(=O)N(c3ccc(-c5ccccc5CN5CC[C@@H](O)C5)cc3)CN4)cc12 [listing 2 of 2 here]

clearance [21]: 28.3 mL/min/kg
Vd [22]: 8.9 L/kg
half-life [23]: 252 min
bioavailability [24]: 23%
Papp [25]: 6.1 ×10⁻⁶ cm/s
SMILES: Cc1nn(-c2ccc3onc(N)c3c2)c2c(=O)n(-c3ccc(-c4ccccc4CN(C)C)cc3)c(C)nc12.O=C(O)C(F)(F)F
